Assay results taken from ChEMBL document CHEMBL5230090, “Recent progress in Keap1-Nrf2 protein-protein interaction inhibitors” (Eur J Med Chem, 2020).
pEC50, pIC50, pKd: −log10 of the molar value. Several values for one entry are separate records, joined by “and”; a condition that tells them apart may be missing. Identical values can stand only once. Starred links: 1 amine or outer side, 2 acyl side, 3 side chain; linkers in the order of their positions; H or OH if unused. Positions of bridges follow the written chain, without caps; N, C: chain ends. Non-standard residues stand in square brackets, D forms with d. Residues, ends and D or L forms follow the SMILES beside them. Chains are numbered I, II in the order given. X1 = NC(=O)[C@H](CCCCNC(=O)COCCOCCN[*:1])N[*:2]; 2Nal = N[C@@H](Cc1ccc2ccccc2c1)C(=O)O; CH2CH2 = C(C[*:2])[*:1]

Experiments:
[1] = target: T1, Kelch-like ECH-associated protein 1 (Homo sapiens, UniProt Q14145); assay: Binding affinity to human KEAP1 incubated for 1 hr by absorbance based analysis
[2] = target: T1, Kelch-like ECH-associated protein 1; assay: Binding affinity to human KEAP1 Kelch domain (residues Ala321-Thr609) expressed in Escherichia coli BL21(DE3) cells assessed as dissociation constant by SPR direct binding assay
[3] = target: T1, Kelch-like ECH-associated protein 1; assay: Binding affinity to human KEAP1 Kelch domain (residues Ala321-Thr609) expressed in Escherichia coli BL21(DE3) cells assessed as dissociation constant by isothermal titration calorimetric analysis
Keap1/Nrf2 [4] = target: T2, Keap1/Nrf2 (Homo sapiens, UniProt Q14145)
[5] = target: T1, Kelch-like ECH-associated protein 1
Keap1/Nrf2 [6] = target: T2, Keap1/Nrf2; remark: listed apart in the source
[7] = target: T1, Kelch-like ECH-associated protein 1; assay: Binding affinity to human KEAP1 by fluorescence polarization assay
[8] = target: T1, Kelch-like ECH-associated protein 1; remark: listed apart in the source
[9] = target: T1, Kelch-like ECH-associated protein 1; assay: Binding affinity to human KEAP1 Kelch domain by SPR direct binding assay
Keap1/Nrf2 [10] = target: T2, Keap1/Nrf2; assay: Inhibition of human Keap1-Nrf2 protein-protein interaction by ELISA method; assay type: protein assay
Keap1/Nrf2 [11] = target: T2, Keap1/Nrf2; assay: Inhibition of human Keap1-Nrf2 protein-protein interaction expressed in U2OS cells incubated for 6 hrs by cellular Keap1-Nrf2 functional assay; assay type: cell-based
[12] = target: T1, Kelch-like ECH-associated protein 1; assay: Binding affinity to human KEAP1 by fluorescence anisotropy assay

T2 sequence (Q16236 whole entry): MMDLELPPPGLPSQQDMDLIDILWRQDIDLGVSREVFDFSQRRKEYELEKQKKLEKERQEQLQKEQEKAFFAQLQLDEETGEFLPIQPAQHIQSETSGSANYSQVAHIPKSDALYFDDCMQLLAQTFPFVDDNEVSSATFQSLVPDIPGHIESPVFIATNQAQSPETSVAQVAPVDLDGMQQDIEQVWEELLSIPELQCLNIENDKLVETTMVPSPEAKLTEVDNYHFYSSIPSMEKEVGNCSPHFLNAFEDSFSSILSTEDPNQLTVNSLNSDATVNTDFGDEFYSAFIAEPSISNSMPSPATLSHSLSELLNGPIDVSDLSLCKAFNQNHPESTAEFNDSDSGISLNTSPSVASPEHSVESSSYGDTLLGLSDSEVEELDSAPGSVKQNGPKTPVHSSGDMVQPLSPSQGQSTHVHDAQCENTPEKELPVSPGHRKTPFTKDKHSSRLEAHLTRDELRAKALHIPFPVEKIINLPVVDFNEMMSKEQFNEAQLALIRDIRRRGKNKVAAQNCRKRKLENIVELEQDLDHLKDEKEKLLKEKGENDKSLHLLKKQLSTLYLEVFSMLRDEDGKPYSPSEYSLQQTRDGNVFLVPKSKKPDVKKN
T2 sequence (Q14145 whole entry): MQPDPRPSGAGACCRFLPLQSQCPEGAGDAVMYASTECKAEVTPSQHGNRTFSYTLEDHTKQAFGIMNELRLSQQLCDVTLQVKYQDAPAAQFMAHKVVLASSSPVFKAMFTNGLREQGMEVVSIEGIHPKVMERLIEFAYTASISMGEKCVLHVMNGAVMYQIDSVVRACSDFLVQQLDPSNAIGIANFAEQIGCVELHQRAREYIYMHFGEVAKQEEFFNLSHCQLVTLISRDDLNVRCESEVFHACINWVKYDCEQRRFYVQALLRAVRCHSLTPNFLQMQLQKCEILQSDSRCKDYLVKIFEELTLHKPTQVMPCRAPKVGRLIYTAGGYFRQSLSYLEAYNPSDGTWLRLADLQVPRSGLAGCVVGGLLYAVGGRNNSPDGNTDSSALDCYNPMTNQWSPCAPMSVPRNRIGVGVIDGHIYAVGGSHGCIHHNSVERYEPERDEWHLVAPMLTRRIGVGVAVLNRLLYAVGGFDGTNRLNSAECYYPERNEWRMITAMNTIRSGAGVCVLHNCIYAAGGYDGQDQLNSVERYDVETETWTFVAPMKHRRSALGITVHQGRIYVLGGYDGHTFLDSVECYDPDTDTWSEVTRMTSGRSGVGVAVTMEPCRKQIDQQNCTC
T1 sequence (Q14145 whole entry, the tested form may be a part): as the sequence (Q14145 whole entry) above

Structure (SMILES): CC[C@H](C)[C@@H]1NC(=O)[C@H](CC(=O)O)NC(=O)[C@@H](N)Cc2ccc(cc2)OCCSC[C@@H](C(=O)O)NC(=O)[C@H](CCC(=O)O)NC(=O)CNC(=O)[C@H]([C@@H](C)O)NC(=O)[C@H](CCC(=O)O)NC1=O (H-YDIETGEC-OH; linker 1-8 via CH2CH2)
- pKd [1]: 7.37

Structure (SMILES): N[C@@H](CCC(=O)O)C(=O)N[C@@H](Cc1c[nH]c2ccccc12)C(=O)N[C@@H](Cc1c[nH]c2ccccc12)C(=O)N[C@@H](Cc1c[nH]c2ccccc12)C(=O)O (H-EWWW-OH)
- pKd [2]: 4.11
- pKd [3]: 5.00

Structure (SMILES): C[C@H](Oc1cccc(-c2cccc(-n3ncc(C(=O)O)c3[C@@H]3C[C@H]3c3cn(C)nn3)c2)c1)C1CCCCC1
- pIC50 (Keap1/Nrf2 [4]): 8.00

Structure (SMILES): COc1ccc(S(=O)(=O)N(Cc2nnn[nH]2)c2ccc(N(Cc3nnn[nH]3)S(=O)(=O)c3ccc(OC)cc3)c3ccccc23)cc1
- pKd [5]: 7.40
- pIC50 (Keap1/Nrf2 [4]): 7.84
- pIC50 (Keap1/Nrf2 [6]): 7.80

Structure (SMILES): CC(C)C[C@@H]1NC(=O)[C@H](Cc2ccccc2)NC(=O)[C@H](CCC(=O)O)NC(=O)CNC(=O)[C@H]([C@@H](C)O)NC(=O)[C@H](CCC(=O)O)NC(=O)[C@@H]2CCCN2C(=O)[C@H](CC(=O)O)NC(=O)[C@H](CC(C)C)NC(=O)[C@H](CCC(=O)NCCOCCOCC(=O)NCCCC[C@H](NC(=O)CC[C@@H]2NC(=O)[C@H](CCCNC(=N)N)NC(=O)[C@H](CCCNC(=N)N)NC(=O)[C@H](CCCNC(=N)N)NC(=O)[C@H](CCCNC(=N)N)NC(=O)[C@H](Cc3ccc4ccccc4c3)NC(=O)[C@H](Cc3ccccc3)NC2=O)C(N)=O)NC(=O)CNC1=O (I: cyclo(DPETGEFLGEL) / II: cyclo([2Nal]RRRREF); linker I:10-II:6 via X1)
- pIC50 (Keap1/Nrf2 [4]): 6.82
- pKd [7]: 7.32

Structure (SMILES): O=C(O)c1ccc(NC2=C/C(=N/S(=O)(=O)c3ccc4ccccc4c3)c3ccccc3C2=O)cc1
- pKd [8]: 6.80
- pIC50 (Keap1/Nrf2 [4]): 5.57

Structure (SMILES): O=c1c2ccccc2nc2c3[nH]c4ccccc4c3ccn12
- pKd [9]: 4.71

Structure (SMILES): COC1=C(NCC(=O)O)CC(O)(CO)C/C1=N\C(C(=O)O)C(C)O (stereo not drawn)
- pIC50 (Keap1/Nrf2 [4]): 4.00 and 3.73

Structure (SMILES): C[C@@H]1NC(=O)[C@H](CC(=O)O)NC(=O)[C@@H](N)Cc2ccc(cc2)OCCSC[C@@H](C(=O)O)NC(=O)[C@H](CCC(=O)O)NC(=O)CNC(=O)[C@H]([C@@H](C)O)NC(=O)[C@H](CCC(=O)O)NC1=O (H-YDAETGEC-OH; linker 1-8 via CH2CH2)
- pKd [1]: 7.40

Structure (SMILES): CC(=O)N1CCN(c2ccc(OCC3COC(Cn4ccnc4)(c4ccc(Cl)cc4Cl)O3)cc2)CC1 (stereo not drawn) [KETOCONAZOLE]
- pIC50 (Keap1/Nrf2 [10]): 5.78

Structure (SMILES): N[C@@H](CC(=O)O)C(=O)N[C@@H](CC(=O)O)C(=O)N[C@@H](Cc1c[nH]c2ccccc12)C(=O)O (H-Asp-Asp-Trp-OH)
- pKd [7]: 7.00

Structure (SMILES): COC1=C(NCC(=O)O)CC(O)(CO)C/C1=N\C(CO)C(=O)O (stereo not drawn)
- pIC50 (Keap1/Nrf2 [4]): 4.00 and 3.73

Structure (SMILES): CC1=NN(c2ccccc2)C(=O)/C1=C/c1ccc(OS(=O)(=O)c2ccccc2[N+](=O)[O-])cc1
- pEC50 (Keap1/Nrf2 [11]): 5.84

Structure (SMILES): CCCCC1CCCN1C(=O)c1cccc(-c2cccc(-n3ncc(C(=O)O)c3C3CC3)c2)c1 (stereo not drawn)
- pIC50 (Keap1/Nrf2 [4]): 7.20

Structure (SMILES): CC[C@H](C)[C@@H]1NC(=O)[C@H](CC(=O)O)NC(=O)[C@H](CCC(N)=O)NC(=O)[C@H](CCCNC(=N)N)NC(=O)[C@H](Cc2c[nH]c3ccccc23)NC(=O)[C@H](CC(C)C)NC(=O)[C@H]([C@@H](C)CC)NC(=O)[C@H](CC(=O)O)NC(=O)[C@@H](NC(=O)[C@H](CC(C)C)NC(=O)[C@H](CC(=O)O)NC(=O)[C@@H](N)CCSC)CSSC[C@@H](C(=O)N[C@@H](Cc2ccccc2)C(=O)N[C@@H](CO)C(=O)O)NC(=O)[C@H](Cc2ccccc2)NC(=O)[C@H](C(C)C)NC(=O)[C@H](CCC(=O)O)NC(=O)[C@H](CCCNC(=N)N)NC(=O)[C@H](CO)NC(=O)[C@H](C(C)C)NC(=O)CNC(=O)[C@H](CC(C)C)NC(=O)[C@H](CC(=O)O)NC1=O (H-MDLCDILWRQDIDLGVSREVFCFS-OH; disulfide 4-22)
- pKd [7]: 7.29

Structure (SMILES): NCCCC[C@H](NC(=O)[C@H](CCCCN)NC(=O)[C@@H](N)CC(=O)O)C(=O)O (H-Asp-Lys-Lys-OH)
- pKd [7]: 6.92

Structure (SMILES): CCc1ccc(S(=O)(=O)N(CC(=O)O)c2cc(Sc3nc[nH]n3)c(O)c3ccccc23)cc1
- pKd [12]: 5.94
- pKd [8]: 6.34
